Like-named read-outs stand apart in the source and are kept apart here.
Legend:
ErIA-actin = biological target: T1, ErIA-actin (Oryctolagus cuniculus, UniProt P68135); assay: Transient phosphorescence anisotropy (TPA) of ErIA-actin alone; type: biochemical, rabbit; settings: concentration not given
T1 construct: Actin was prepared from rabbit skeletal muscle by extracting acetone powder; from tissue; host or cells: rabbit skeletal muscle (acetone powder)
Procedure: […] These were added together with glucose catalase/oxidase to prevent photobleaching, and TPA was performed at 25 °C to determine anisotropy values ([7]).

[1] = biological target: AF568-actin:phosphorylated (by PKA) C0-C2 (Homo sapiens, UniProt Q14896); assay: TR-F concentration-response assay, AF568-actin with PKA-phosphorylated C0-C2
Procedure: (§5) Using the same conditions as in the primary screen, we determined the concentration dependence of each of the three Hit compounds on the AF568-actin lifetime effects. […] In a separate dose–response assay utilizing 3 μM C0-C2, we compared the effects of the compounds on nonphosphorylated and phosphorylated C0-C2. […] In the second dose-response assay, 3 μM instead of 2 μM C0-C2 was used in the second dose–response assay so that effects of compounds on phosphorylated C0-C2 could be readily detected, as phosphorylation of C0-C2 itself (in the absence of compounds) reduces binding to actin.
C0-C2 was treated with 7.5 ng PKA/μg C0-C2 at 30 °C for 30 min.
The Hit compounds were dissolved in DMSO to make a 10 mM stock solution, which was serially diluted in 96-well mother plates. Hits were screened at eight concentrations (0.5–100 μM). Compounds (1 μl) were transferred from the mother plates into 384-well plates using a Mosquito HV liquid handler (TTP Labtech Ltd). The same procedure of dispensing as for the pilot screening was applied in the TR-F concentration–response assays.

[2] = biological target: C0-C2 portion of human cMyBP-C (Homo sapiens, UniProt Q14896); assay: Isothermal titration calorimetry (ITC) of compounds binding to C0-C2
[3] = biological target: T2, AF568-actin:C0-C2 (actin-cMyBP-C binding) (Homo sapiens, UniProt Q14896); assay: TR-F concentration-response assay, AF568-actin with C0-C2; settings: 2 μM C0-C2
Procedure: as §5
The Hit compounds were dissolved in DMSO to make a 10 mM stock solution, which was serially diluted in 96-well mother plates. Hits were screened at eight concentrations (0.5–100 μM). Compounds (1 μl) were transferred from the mother plates into 384-well plates using a Mosquito HV liquid handler (TTP Labtech Ltd). The same procedure of dispensing as for the pilot screening was applied in the TR-F concentration–response assays. Concentration dependence of the TR-F change was fitted using the Hill equation ([38]):(3) τ=τo+τmaxC^α/EC50α+C^α where τ and τ0 are TR-F in the presence and in the absence of the compound, τmax is the maximum effect, C is the compound concentration, EC50 is the compound concentration for which 50% of maximum effect is obtained, and α is the Hill coefficient of sigmoidicity.

AF568-actin = biological target: T3, AF568-actin (Oryctolagus cuniculus, UniProt P68135); assay: TR-F high-throughput screen, AF568-actin alone (no C0-C2); type: binding, rabbit; settings: 10 μM compound; 1 μM AF568-actin alone
T3 construct: Actin was prepared from rabbit skeletal muscle by extracting acetone powder; from tissue; host or cells: rabbit skeletal muscle (acetone powder)
Procedure: (§1) The 1280 LOPAC compounds were received in 96-well plates (LOPAC^1280, Sigma-Aldrich) and were reformatted into 1536-well flat, black-bottom polypropylene plates (Greiner Bio-One). In total, 50 nl of compounds was dispensed using an automated Echo 550 acoustic liquid dispenser (Labcyte). LOPAC compounds were formatted into plates, with the first two and last two columns loaded with 50 nl of DMSO and used for compound-free controls. The final concentration of the compounds was 10 μM. These assay plates were then heat-sealed using a PlateLoc Thermal Microplate Sealer (Agilent Technologies) and stored at –20 °C. Before screening, compound plates were equilibrated to room temperature (25 °C). In total, 1 μM AF568-labeled actin without or with 2 μM C0-C2 in M-ABB was dispensed by a Multidrop Combi Reagent Dispenser (Thermo Fisher Scientific) into the 1536-well assay plates containing the compounds. Plates were incubated at room temperature for 20 min before recording the data with the FLTPR. Plates were rescanned after 120 min incubation.
(§2) Two full screens were done using different batches of AF568-labeled actin, C0-C2, and test compounds.
(§3) Following data acquisition, TR-F waveforms observed for each well were convolved with the IRF to determine the lifetime (τ) (Equation 1) by fitting to a single-exponential decay ([15], [35]).
(§4) A compound was considered a Hit if it was in the top 25 compounds in each of two independent screenings of the LOPAC. Top compounds were those that increased the lifetime of AF568-actin when C0-C2 was present (indicating inhibition of C0-C2 binding). Compounds that altered AF568-actin lifetime when C0-C2 was not present by >4 SD relative to that of the control samples (those exposed to 0.1% DMSO) were first removed from the analysis. […] Any change in lifetime induced by a compound on AF568-actin alone was then subtracted from the effect of the compound on AF568-actin when C0-C2 was present. The resulting C0-C2-dependent change for all compounds was ranked.

[4] = biological target: T2, AF568-actin:C0-C2 (actin-cMyBP-C binding); assay: TR-F high-throughput screen of LOPAC library, AF568-actin with C0-C2
Procedure: as §1, §2, §3, §4

C0-C2 = biological target: T4, C0-C2 (Homo sapiens, UniProt Q14896); assay: Visible light scattering (C0-C2 aggregation); settings: 2 or 10 μM C0-C2 mixed with compound for 20 min
T4 construct: N-terminal domains C0 through C2 (C0-C2), containing the proline/alanine-rich linker (P/A) and the M-domain (M); 6x His (N, cleaved yes); TEV protease cleavage site (N, cleaved yes); made in house; host or cells: E. coli BL21DE3
Procedure: All three drugs were tested for causing C0-C2 to aggregate by measuring absorbance in the visible range beyond the absorption of protein or the drugs themselves. Observed absorbance in these wavelengths is actually loss of transmitted light due to light scattering from aggregated C0-C2. 2 or 10 μM of C0-C2 was mixed with 20 μM of suramin, NF023, or ATA for 20 min and wavelengths 250–600 nm were scanned using a Beckman Coulter DU730 UV/Vis Spectrophotometer to determine optical density. The same was done with 2 or 10 μM of C0-C2 and 20 μM of suramin, NF023, or ATA alone.

F-actin = biological target: T5, F-actin (Oryctolagus cuniculus, UniProt P68135); assay: ITC of compounds with actin alone; type: binding, rabbit
T5 construct: Actin was prepared from rabbit skeletal muscle by extracting acetone powder; from tissue; host or cells: rabbit skeletal muscle (acetone powder)
Procedure: The titration of compounds binding to cMyBP-C was performed on an Affinity ITC (TA Instruments). Each compound in M-ABB buffer (2000–3000 μM) was titrated into C0-C2 in M-ABB buffer (100 μM, 350 μl). For the titration, a preliminary 2.5-μl injection (ignored in data analysis) was followed by 19–39 subsequent 2.5-μl injections with 4 min waits between each injection. The reference cell was filled with distilled water. To account for heat changes of dilution and mechanical mixing, binding data were corrected by subtraction of the final plateau injection values (when binding is complete) prior to curve fitting. Corrected binding data was processed using the NanoAnalyze analysis software (TA Instruments).
Figure S2. ITC of Suramin binding to actin alone. (A) Titration of 100 µM F-actin (in 350 µl) with 40 2.5
µl injections of 3,000 µM Suramin. (B) Fitted ITC binding curve for Suramin binding. Binding to actin was
for Suramin with actin alone (Kd ~200 µM).
(1 picture or pasted object on this page, not shown here)

[5] = biological target: T6, FMAL-actin:TMR-C0-C2^Cys225 (Homo sapiens, UniProt Q14896, C239L/C249S/C426T/C436V/C443S/H225C); assay: FMAL-actin-TMR-C0-C2 TR-FRET binding assay; settings: 20 μM compound; 1 μM FMAL-actin, 2 μM TMR-C0-C2; both nonphosphorylated and phosphorylated C0-C2
T6 construct: N-terminal domains C0 through C2 (C0-C2), containing the proline/alanine-rich linker (P/A) and the M-domain (M); 6x His (N, cleaved yes); TEV protease cleavage site (N, cleaved yes); made in house; host or cells: E. coli BL21DE3 (C0-C2^Cys225); actin purified from rabbit skeletal muscle
Procedure: In total, 1 μM F-Actin labeled (to 10%) on Cys-374 with FMAL (donor fluor) was incubated with increasing concentrations (0–20 μM) of C0-C2^Cys225 unlabeled (for donor only (D) data acquisition) or labeled to 95% with TMR (acceptor fluor) (for donor–acceptor (DA) data). Lifetimes of FMAL-actin were determined for D and DA at each concentration of C0-C2^Cys225. TR-FRET efficiency (1 – (τDA/τD)) was determined for each C0-C2^Cys225 concentration. The binding curve was generated from data from two separate preparations of actin and C0-C2^Cys225. Testing of compound effects by TR-FRET was similarly done at 1 μM FMAL-actin with unlabeled C0-C2^Cys225 (D) and TMR-C0-C2^Cys225 (DA), both at 2 μM.

ErIA-actin + C0-C2 = biological target: T7, ErIA-actin + C0-C2 (Homo sapiens, UniProt Q14896); assay: Transient phosphorescence anisotropy (TPA) of ErIA-actin with C0-C2; type: biochemical; settings: 1 μM ErIA-actin, 2 μM C0-C2; actin alone 0.033 ± 0.001
T7 construct: N-terminal domains C0 through C2 (C0-C2), containing the proline/alanine-rich linker (P/A) and the M-domain (M); 6x His (N, cleaved yes); TEV protease cleavage site (N, cleaved yes); made in house; host or cells: E. coli BL21DE3 (C0-C2); actin purified from rabbit skeletal muscle
Procedure: The same mixtures were tested in the presence of 2 μM C0-C2. These were added together with glucose catalase/oxidase to prevent photobleaching, and TPA was performed at 25 °C to determine anisotropy values ([7]).

[6] = biological target: FMAL-actin (F-actin from rabbit skeletal muscle labeled at Cys-374 with fluorescein-5-maleimide) (rabbit) (UniProt P68135); assay: FRET or BRET; TR-FRET; 1 μM F-actin labeled (to 10%) with FMAL (donor) with 0-20 μM TMR-C0-C2^Cys225 (acceptor) ±PKA; M-ABB
[7] = biological target: FMAL-actin (F-actin from rabbit skeletal muscle labeled at Cys-374 with fluorescein-5-maleimide) (rabbit) (UniProt P68135); assay: as above; remark: listed apart in the source
[8] = single titration shown in Fig. 4
[9] = 10 μM compound, 1 μM AF568-actin, 2 μM C0-C2
[10] = Δτ actin+C0-C2 after subtracting effect on actin alone

T2 sequence (Q14896 1-451 limits assumed): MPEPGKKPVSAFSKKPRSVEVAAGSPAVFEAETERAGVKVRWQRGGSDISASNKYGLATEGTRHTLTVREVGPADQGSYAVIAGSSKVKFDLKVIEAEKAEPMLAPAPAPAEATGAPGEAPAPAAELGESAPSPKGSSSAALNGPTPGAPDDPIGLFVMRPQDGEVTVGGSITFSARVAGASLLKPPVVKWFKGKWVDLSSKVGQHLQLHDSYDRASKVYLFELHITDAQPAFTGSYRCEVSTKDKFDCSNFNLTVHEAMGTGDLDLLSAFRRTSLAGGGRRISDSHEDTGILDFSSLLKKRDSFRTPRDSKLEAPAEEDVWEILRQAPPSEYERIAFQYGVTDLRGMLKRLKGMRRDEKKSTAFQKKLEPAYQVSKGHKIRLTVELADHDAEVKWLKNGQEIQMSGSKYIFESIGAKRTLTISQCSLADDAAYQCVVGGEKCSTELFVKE
C0-C2 portion of human cMyBP-C, sequence (Q14896 1-451 limits assumed): as above
AF568-actin:phosphorylated (by PKA) C0-C2, sequence (Q14896 1-451 limits assumed): as above
T4 sequence (Q14896 1-451 limits assumed): as above
T7 sequence (Q14896 1-451 limits assumed): as above
T6 sequence (Q14896 1-451 H225C/C239L/C249S/C426T/C436V/C443S limits assumed): as the sequence (Q14896 1-451 limits assumed) above, with H225C, C239L, C249S, C426T, C436V, C443S counted along it

With `O=C(NCCO)c1cccc(-c2cc(Nc3ccc(OC(F)(F)F)cc3)ncn2)c1` [GNF-5] the “effect on actin anisotropy (TPA), control compound” value (ErIA-actin) was “does bind actin and changes its anisotropy”.

In the case of `Cc1ccc(C(=O)Nc2ccc(S(=O)(=O)O)c3cc(S(=O)(=O)O)cc(S(=O)(=O)O)c23)cc1NC(=O)c1cccc(NC(=O)Nc2cccc(C(=O)Nc3cc(C(=O)Nc4ccc(S(=O)(=O)O)c5cc(S(=O)(=O)O)cc(S(=O)(=O)O)c45)ccc3C)c2)c1` [Suramin, suramin], the EC50 [1] is reported as 4.8 ± 1.2 µM, the “TR-F+PKA n” value ([1]; 3 μM phosphorylated C0-C2, n not defined in table) is reported as 1.2 and the “ITC ΔS” value ([2]; Table 1 average, no unit in table (Fig. 4: J/mol•K)) is reported as 32.3. For the same compound, the “ITC ΔH” value ([2]; Table 1 average, no unit in table (Fig. 4: kJ/mol)) was −17.4, the “ITC ΔG” value ([2]; Table 1 average, unit not given) was −26.8 and the “ITC n (stoichiometry, compound per C0-C2)” value ([2]; average of two preparations) was 3.4. The Kd ([2]; compound binding to C0-C2, mean ± SE, two protein preparations, read-out: ITC Kd) was 16.6 ± 1 µM, the “ITC n (fitted curve of Figure 4)” value [2, 8] was 3.9 and the “ITC ΔH (fitted curve of Figure 4)” value [2, 8] was -17.8 kJ/mol. The “ITC ΔS (fitted curve of Figure 4)” value [2, 8] was 30.2 J/mol•K, the Kd ([2]; single titration shown in Fig. 4, 100 μM C0-C2, read-out: ITC Kd (fitted curve of Figure 4)) was 17.6 µM and the EC50 ([3]; 1 μM AF568-actin, mean ± SE) was 5.9 ± 1.2 µM. For the same compound, the TR-F n ([3]; n not defined in table) was 3.6, the “Actin Drug Δτ, Screen 1” value (AF568-actin) was -0.03 ns and the “Actin Drug Δτ, Screen 2” value (AF568-actin) was 0.00 ns. For the same compound, the “Actin Drug Δτ, Sub-optimal Screen 3” value (AF568-actin) was -0.03 ns, the “Actin Drug Δτ, Sub-optimal Screen 4” value (AF568-actin) was 0.04 ns and the “Actin-MyBP-C Drug Δτ, Screen 1” value [4, 9] was 0.088 ns. The “Actin-MyBP-C Drug Δτ, Screen 2” value [4, 9] was 0.15 ns, the “Actin-MyBP-C Drug Δτ, Sub-optimal Screen 3” value [4, 9] was 0.18 ns and the “Actin-MyBP-C Drug Δτ, Sub-optimal Screen 4” value [4, 9] was 0.13 ns. The “average change in lifetime, SD above the median of all compounds not excluded” value ([4]; 10 μM compound, 1 μM AF568-actin, 2 μM C0-C2, average of screens) was 6.5 SD, the “Difference, Screen 1” value [4, 10] was 0.12 ns and the “Difference, Screen 2” value [4, 10] was 0.16 ns. The “Difference, Sub-optimal Screen 3” value [4, 10] was 0.21 ns, the “Difference, Sub-optimal Screen 4” value [4, 10] was 0.09 ns and the “absorbance in the visible range (light scatter, C0-C2 aggregation)” value (C0-C2) was “did not detect absorption”. For the same compound, the Kd (F-actin) was about 200 µM, the “ITC interaction with F-actin (in words)” value (F-actin; actin alone) was “weak interaction” and the “TR-FRET measured binding of C0-C2 to actin, effect of compound” value [5] was “almost completely eliminated”.

With “C0-C2: recombinant N-terminal fragment (domains C0 through C2) of human cMyBP-C” the “actin's final anisotropy in the presence of C0-C2” value (ErIA-actin + C0-C2) was 0.071 ± 0.003.

With “TMR-C0-C2^Cys225 (single-cysteine C0-C2 of human cMyBP-C labeled with tetramethylrhodamine at Cys225) (from UniProt Q14896 1-1274) (domain or fragment)” the Kd [6] was 2.6 µM, the donor lifetime τDA of FMAL-actin with 20 μM TMR-C0-C2^Cys225 (τD = 4.2 ns) [6] was 2 ns and the Kd [7] was 1 µM.

“TMR-C0-C2^Cys225 phosphorylated by PKA (from UniProt Q14896 1-1274) (domain or fragment)” was tested, and the Kd [6] was 8 µM and the Kd [7] was 3 µM.
